Data reported in article doi:10.1101/2023.05.15.540887, “Comparative analysis of drug-like EP300/CREBBP acetyltransferase inhibitors” (bioRxiv, 2023).

Assays:
[1] = tested on: histone H3 acetylation in MCF-7 cells; assay: Western blot analysis of histone acetylation (H3K18Ac, H3K27Ac, H3K23Ac) in MCF-7 cells; assay type: cell-based, human; settings: 3 h, 8 nM – 5 μM, compared among 1-3
Protocol: Next, we sought to quantitatively benchmark the properties of 1-3 in living cells. EP300 and CREBBP modify a wide variety of substrates in biochemical experiments and upon ectopic overexpression.[2] However, two well-characterized cellular histone lysine substrates of these enzymes are H3K18 and H3K27.[26] Even though H3K18Ac is the more abundant of the two markers, H3K27Ac is also of great interest due to its association with active enhancer regions. […] Cells were treated with escalating doses of 1-3 and harvested at 3 h to avoid overt cytotoxicity and allow the direct effects on acetylation to be observed (Fig. 3a). […] Control experiments indicated levels of H3K23Ac, which is not regulated by EP300/CREBBP, were not affected.
MCF-7 cells were plated in 1700 µL culture medium at 1 x 10^6 cells per well in 6-well dishes. After 16-24 h cells were treated with 300 µL of 1-3-containing media to yield a final concentration of 8 nM, 40 nM, 200 nM, 1 µM, or 5 µM EP300/CREBBP inhibitor (0.1% final concentrations of DMSO). Controls were treated with vehicle DMSO (0.1%). […]
Histone samples were quantified using the Precision Red Protein Assay (Cytoskeleton #ADV02). […]

HCT-15 = assay: NCI-60 growth inhibition (sulforhodamine B); assay type: cell-based, human; settings: HCT-15 (Colon Cancer), negative log of Molar conc., LCONC -8
SNB-75 = assay: NCI-60 growth inhibition (sulforhodamine B); assay type: cell-based, human; settings: SNB-75 (CNS Cancer), negative log of Molar conc., LCONC -8
U251 = assay: NCI-60 growth inhibition (sulforhodamine B); assay type: cell-based, human; settings: U251 (CNS Cancer), negative log of Molar conc., LCONC -8
LOXIMVI = assay: NCI-60 growth inhibition (sulforhodamine B); assay type: cell-based, human; settings: LOX IMVI (Melanoma), negative log of Molar conc., LCONC -8
SK-MEL-2 = assay: NCI-60 growth inhibition (sulforhodamine B); assay type: cell-based, human; settings: SK-MEL-2 (Melanoma), negative log of Molar conc., LCONC -8
OVCAR-8 = assay: NCI-60 growth inhibition (sulforhodamine B); assay type: cell-based, human; settings: OVCAR-8 (Ovarian Cancer), negative log of Molar conc., LCONC -8
NCI/ADR-RES = assay: NCI-60 growth inhibition (sulforhodamine B); assay type: cell-based; settings: Homo sapiens, LCONC -8
M14 = M14 (Melanoma); negative log of Molar conc.; LCONC -8
[2] = Homo sapiens, read-out: GI50 NLOGVALUE (converted)
[3] = Homo sapiens, read-out: IC50 NLOGVALUE (converted)
[4] = Homo sapiens, read-out: LC50 NLOGVALUE
[5] = Homo sapiens, read-out: IC50 NLOGVALUE

Compound: C[C@H](CN[C@@H](C(=O)Nc1ccc(-c2cnn(C)c2)cn1)c1ccccc1)c1ccc(C#N)cc1 [CPI-1612]
- inhibition of histone acetylation (H3K18Ac, H3K27Ac), Western blot [1]: most potent activity
- TGI NLOGVALUE (HCT-15): 4
- GI50 (HCT-15; [2]): 16.2 nM
- IC50 (HCT-15; [3]): 53.7 nM
- CC50 (HCT-15; [4]): > 100 µM
- GI50 (SNB-75; Homo sapiens, read-out: GI50 NLOGVALUE): > 100 µM
- IC50 (SNB-75; [5]): > 100 µM
- CC50 (SNB-75; [4]): > 100 µM
- TGI NLOGVALUE (SNB-75): 4
- GI50 (U251; Homo sapiens, U-251, read-out: GI50 NLOGVALUE (converted)): 2340 nM
- IC50 (U251; Homo sapiens, U-251, read-out: IC50 NLOGVALUE (converted)): 28.8 µM
- CC50 (U251; Homo sapiens, U-251, read-out: LC50 NLOGVALUE): > 100 µM
- TGI NLOGVALUE (U251): 4
- GI50 (LOXIMVI; [2]): 44.7 nM
- IC50 (LOXIMVI; [3]): 129 nM
- CC50 (LOXIMVI; [4]): > 100 µM
- TGI NLOGVALUE (LOXIMVI): 4
- GI50 (SK-MEL-2; [2]): 851 nM
- IC50 (SK-MEL-2; [5]): > 100 µM
- CC50 (SK-MEL-2; [4]): > 100 µM
- TGI NLOGVALUE (SK-MEL-2): 4
- GI50 (OVCAR-8; [2]): 40.7 µM
- IC50 (OVCAR-8; [5]): > 100 µM
- CC50 (OVCAR-8; [4]): > 100 µM
- TGI NLOGVALUE (OVCAR-8): 4
- GI50 (NCI/ADR-RES; NCI/ADR-RES (Ovarian Cancer), negative log of Molar conc., read-out: GI50 NLOGVALUE (converted)): 6.46 µM
- IC50 (NCI/ADR-RES; NCI/ADR-RES, Ovarian Cancer, negative log of Molar value, EXPID 2301NS84, read-out: IC50 NLOGVALUE (converted)): 29.5 µM
- CC50 (NCI/ADR-RES; NCI/ADR-RES, Ovarian Cancer, negative log of Molar value, EXPID 2301NS84, read-out: LC50 NLOGVALUE): > 100 µM
- TGI NLOGVALUE (M14): 4
